The subject of experiment [1] is NPAT and RNA polymerase II at Site II. In words: ChIP-qPCR with NPAT or RNA Pol II antibodies at Site II in synchronized MEFs. The class given is cell-based, mouse. Conditions: 6.30 hours post-release. How it is done: FIG. 3B-3F are graphs showing histone RNA (relative to actin) in wildtype (WT) and Y40A mutant yeast cells treated with α-factor for 3 hours, washed and harvested at indicated time points post-release. Total RNA was prepared followed by qRT-PCR for histones transcripts. FACS analysis of yeast cells was performed to determine exit of cells from […] (0 minutes) and entry into cell cycle. Data are representative of three independent experiments. The p values for 30 minutes are as follows: #p=0.024; ##p=0.008; ###p=0.0083; ####p=0.037. FIG. 3G to 3H are graphs showing ChIP (% input DNA) in synchronized MEFs treated with WEE1 inhibitor or untreated and harvested 6.30 hours post-release. ChIP was performed using NPAT and IgG antibodies (FIG. 3G) or RNA Pol II and IgG (FIG. 3H) followed by qPCR using primers corresponding to Site II. *p=0.0018, **p=0.01. FIG. 3I is an immunoblot showing total histones prepared from synchronized WT (first three columns) and Y40A mutant yeast cells (last three columns) 0, 20, and 30 minutes post release that were immunoprecipitated with pTyr37-H2B antibodies and immunoblotted with yeast H2B antibodies (upper panel) or yeast tubulin antibodies (bottom panel). […]
To understand the potential mechanism of repression of histone transcription the role of NPAT was assessed. […]
Background: Real-time PCR tracks product formation cycle by cycle.

Experiment [2] deals with core histone genes located in Hist1 cluster. In words: qRT-PCR of histone genes (8-histone gene signature) in synchronized cells. Conditions: MK1775 0.6 uM, 14 hr, 8.30 hours post-release. It counts as cell-based. How it is done: FIG. 33a-33h show a 8-histone gene signature. a-h, Synchronized cells treated with WEE1 inhibitor, MK1775 (0.6 uM, 14 hr) were harvested at indicated time points post-release. Total RNA was prepared followed by quantitative RT-PCR for 8 histone genes.
Human cells have 55 distinct histone genes each encoding a fraction of core histones. This study determined histone levels using 20 of these genes. In untreated cells, rapid decrease in transcripts of all of these histone genes was observed when RNA levels of 6.30 hours post-release samples (late S phase) were compared with 8.30 hours post-release (G2/M phase) samples (FIGS. 33a-33h).
Based on extensive transcriptional profiling of 20 histone genes, this study identified 8 genes (H2Bm, H2bn, H2Bl, H3 h, H4j, H2Ai, H2Ak and H2Bk) as being representative of global histone transcriptional output, termed as the 8-histone gene signature.

One compound from patent US9594084B2, “Phosphorylation of histones and uses thereof” (H. LEE MOFFITT CANCER CENTER AND RESEARCH INSTITUTE, priority 2012, dated 2017) can be followed below.

As for `C=CCn1c(=O)c2cnc(Nc3ccc(N4CCN(C)CC4)cc3)nc2n1-c1cccc(C(C)(C)O)n1` [MK-1775], in experiment [1], the “recruitment of NPAT at Site II” value is “binding was detected” and the “recruitment of RNA polymerase II at Site II” value is “binding was detected”. Also, the “histone mRNA levels” value in experiment [2] was “did not decrease”.
